Assay results published in PMC5381194, “On-chip in vitro cell-network pre-clinical cardiac toxicity using spatiotemporal human cardiomyocyte measurement on a chip” (Scientific Reports, 2014).
Where two headings read alike, the source gives them in different places.

Tests used:
hERG = hERG (Homo sapiens, UniProt Q12809); assay: hERG assay: K+ current by patch clamp in hERG expressing CHO-K1 cells; conditions: pH 7.4
Protocol: Supplementary Explanation of Methods [in online]
Measurement of potassium (K+) current by patch clamp in hERG expressing CHO-K1 cells A patch clamp glass electrode was filled with internal solution (KCl: 130 mM, MgCl2: 1 mM, EGTA: 5 mM, MgATP: 5 mM, HEPES: 10 mM, pH 7.20). The electrode was attached to a patch clamp headstage holder and the tip of the electrode was brought into contact with the cell membrane with a micromanipulator under the microscope. Slight negative pressure from suction was created inside the electrode and the patch clamp system AXOPATCH 200B (Axon Instruments) and Clampex 9.2 was used to obtain a measured membrane resistance value (R-memb) greater than 20 megohms. The resting membrane potential was set at -80 mV just to wait to obtain R-memb greater than 1 gigaohms. Then to make whole-cell clamp mode, a strong suction was applied to rupture the cell membrane under the electrode. Cell capacitance and series resistance were compensated. The stimulation protocol (holding potential: -80 mV, depolarization pulse: +50 mV, for 2 s, repolarization pulse: -40 mV, for 2 s, pulse frequency:
0.067 Hz) was applied and the corresponding current was recorded. After the current waveform became stable, the application solutions were added cumulatively from the lowest concentration.
The cells were exposed to each concentration for 5 minutes and washed with Tyrode solution […]
pH 7.40) to observe the recovery after the exposure to the highest concentration. All experiments (n=3) were carried out at room temperature. The cells were perfused with Tyrode solution at the rate of 2.5 ml/min through the experiment as the background flow. The test compound was added to the cells directly via a pipette set nearby the cells at the rate of 350-400 µl/min.
Percentage change from pre-application values in tail peak current (% inhibition) was calculated […]
application/average of the consecutive 4 currents just before the start of the first application (the lowest one)] × 100. The dose levels were selected to describe the dose response curve. The maximum concentration was set to at least approximately 30~100 times its effective therapeutic plasma concentration in consideration of the solubility. […]

[1] = system: human embryonic stem cell-derived cardiomyocyte cluster (hES-CMC); conditions: for Arrest (%) / Fib-like (%): human, 10 min
[2] = design: method as in references and pharmaceutical attachments; conditions: clinical report; effective therapeutic plasma concentration; ref references and pharmaceutical attachments; cited from earlier work
[3] = clinical VT/TdP risk compiled from the literature; ref literature; cited from earlier work
[4] = system: human embryonic stem cell-derived cardiomyocyte cluster (hES-CMC); assay: On-chip MEA field potential recording of hCM clusters (temporal FPD and STVFPD); conditions: for Score (On-chip MEA system, VT/TdP risk): more than 1.9-fold of STVFPD is the border of high risk of VT/TdP; for FPD (ratio) / STVFPD (ratio): 10 μM (Ref. dose ca. 10^2 × CMAX), ratio against the control, mean ± S.E.
[5] = system: guinea pig right ventricular papillary muscle; assay: APD assay: action potential recording in guinea pig right ventricular papillary muscle; conditions: relative ratio against the control, mean
Protocol: After the current waveform
(n=3) were carried out at room temperature. The cells were perfused with Tyrode solution at the […]
lowest one)] × 100. […] The […]
plasma concentration in consideration of the solubility. […]
(§1) megohms, which was coupled to an Ag-AgCl bath electrode and connected to a microelectrode […]
(§2) amplifier (MEZ-8300, Nihon Koden). […]
(§3) computer system (WinCAPA1.6.6.Aui, Physio-Tech). The components of the action potential analyzed by the computer system are: resting membrane potential (RMP), action potential amplitude (APA), overshoot (OS), action potential duration at 30%, 50% and 90% of repolarization (APD30, APD50 and APD90, respectively) and maximum rate of rising phase (V max = dV/dt max). After an equilibration period for at least one hour, the test compound was added to the organ bath at increasing cumulative concentrations. The administration volume and rate was 20, 40, 140 µl/20 ml organ bath and 1 s/dose. Cardiac action potentials were recorded before and 30 minutes after the exposure of the test compound at each concentration.
(§4) Monophasic action potential duration (MAPD) measurements in isolated Langendorff-perfused female rabbit heart
(§5) Female NZW rabbit were anesthetized by an intravenous injection of thiopental (30 mg/kg) and heparin (500 U/kg). Then the heart was quickly removed and its aorta was cannulated, the bundle of His was sectioned, for perfusion of the coronary artery according to the Langendorff method with constant pressure (initial perfusion pressure: 60-70 mmHg). The heart was perfused at […]
KCl: 4.7 mM, CaCl2: 2.5 mM, MgSO4: 1.2 mM, KH2PO4: 1.2 mM, NaHCO3: 25 mM, glucose:
Two electrocardiogram (ECG) […]
electrodes were held lightly against the epicardium, the positive one on the left ventricle, the […]

[6] = system: isolated Langendorff-perfused female rabbit heart; assay: MAPD measurement in isolated Langendorff-perfused female rabbit heart; conditions: relative ratio against the control, mean
Source text: as §1, §2, §3
The dose levels were selected to describe the dose response curve.
as §4, §5

[7] = hCM clusters, 10 μM, ratio of lethally abnormal events

Chain of hERG (Q12809 whole entry): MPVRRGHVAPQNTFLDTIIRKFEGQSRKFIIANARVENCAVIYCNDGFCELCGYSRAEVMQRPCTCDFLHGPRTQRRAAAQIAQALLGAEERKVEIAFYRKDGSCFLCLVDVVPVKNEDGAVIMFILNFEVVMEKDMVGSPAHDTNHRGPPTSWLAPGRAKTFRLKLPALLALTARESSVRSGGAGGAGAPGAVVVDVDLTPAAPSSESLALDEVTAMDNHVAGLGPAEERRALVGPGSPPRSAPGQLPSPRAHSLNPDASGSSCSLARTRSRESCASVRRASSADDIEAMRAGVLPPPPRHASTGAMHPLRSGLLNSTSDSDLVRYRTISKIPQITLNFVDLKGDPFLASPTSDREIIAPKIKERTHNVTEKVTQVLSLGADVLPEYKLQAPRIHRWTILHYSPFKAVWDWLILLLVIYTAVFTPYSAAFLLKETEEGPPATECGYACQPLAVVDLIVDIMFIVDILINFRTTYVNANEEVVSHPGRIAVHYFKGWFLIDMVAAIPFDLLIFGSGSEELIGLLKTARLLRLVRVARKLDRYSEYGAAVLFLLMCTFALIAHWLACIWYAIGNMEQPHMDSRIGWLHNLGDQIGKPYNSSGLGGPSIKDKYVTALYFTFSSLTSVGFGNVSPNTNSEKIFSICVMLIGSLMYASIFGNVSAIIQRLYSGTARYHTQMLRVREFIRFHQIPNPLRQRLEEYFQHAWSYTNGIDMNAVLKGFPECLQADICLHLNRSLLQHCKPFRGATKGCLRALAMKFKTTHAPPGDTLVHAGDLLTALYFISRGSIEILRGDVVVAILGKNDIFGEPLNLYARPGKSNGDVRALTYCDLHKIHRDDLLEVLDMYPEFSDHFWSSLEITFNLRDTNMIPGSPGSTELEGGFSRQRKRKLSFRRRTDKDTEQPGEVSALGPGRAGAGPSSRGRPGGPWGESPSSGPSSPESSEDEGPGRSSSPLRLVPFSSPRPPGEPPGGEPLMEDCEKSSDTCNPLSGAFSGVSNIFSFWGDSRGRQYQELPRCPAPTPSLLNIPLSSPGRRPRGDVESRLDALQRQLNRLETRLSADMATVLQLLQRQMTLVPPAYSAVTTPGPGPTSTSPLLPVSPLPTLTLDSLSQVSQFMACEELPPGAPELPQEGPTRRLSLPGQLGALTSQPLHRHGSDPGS

| Score (On-chip MEA system, VT/TdP risk) [4] | Structure (SMILES) | Cmax [2] [nM] | VT/VF/TdP (Clinical report) [3] | Arrest (%) ([1]; 10 µM) | Fib-like (%) ([1]; 10 µM) | also measured |
| --- | --- | --- | --- | --- | --- | --- |
| Low | COc1ccc([C@@H]2Sc3ccccc3N(CCN(C)C)C(=O)[C@@H]2OC(C)=O)cc1 [Diltiazem] | 110 |  |  |  | Arrest (%) ([1]; 1 µM): 50%; Fib-like (%) ([1]; 1 µM): 0% |
| Low | CC(C)(C)c1ccc(C(=O)CCCN2CCC(OC(c3ccccc3)c3ccccc3)CC2)cc1 [Ebastine] | 160 |  |  |  | Arrest (%) ([1]; 1 µM): 0%; Fib-like (%) ([1]; 1 µM): 0% |
| High | O=C(NCC1CCCCN1)c1cc(OCC(F)(F)F)ccc1OCC(F)(F)F (centres unmarked) [Flecainide] | 430 |  |  |  | inhibition at 5 min, 10 µM (hERG; CHO-K1 cells expressing hERG): 88.3%; Arrest (%) ([1]; 100 µM): 13%; Fib-like (%) ([1]; 100 µM): 0% |
| Low | C[C@H]1COc2c(N3CCN(C)CC3)c(F)cc3c(=O)c(C(=O)O)cn1c23 [Levofloxacin] | 22000 |  |  |  | inhibition at 5 min, 300 µM (hERG; CHO-K1 cells expressing hERG): 13.2%; Arrest (%) ([1]; 1000 µM): 40%; Fib-like (%) ([1]; 1000 µM): 4% |
| High | CSc1ccc2c(c1)N(CCC1CCCCN1C)c1ccccc1S2 (centres unmarked) [Thioridazine] | 1800 | (+) | 0 | 0 |  |

Continued, molecule first:

| Structure (SMILES) | Score (On-chip MEA system, VT/TdP risk) [4] | Cmax [2] [nM] | VT/VF/TdP (Clinical report) [3] | Arrest (%) ([1]; 10 µM) | Fib-like (%) ([1]; 10 µM) | also measured |
| --- | --- | --- | --- | --- | --- | --- |
| CC(C)NCC(O)c1ccc(NS(C)(=O)=O)cc1 (racemic) [DL-sotalol] |  | 2500 |  |  |  | inhibition at 5 min, 30 µM (hERG; CHO-K1 cells expressing hERG): 19.2%; Score (On-chip MEA system, VT/TdP risk) [1]: High; Arrest (%) ([1]; 1000 µM): 5%; Fib-like (%) ([1]; 1000 µM): 0% |
| COc1ccc(CCN2CCC(Nc3nc4ccccc4n3Cc3ccc(F)cc3)CC2)cc1 [Astemizole] | High | 2 | (+) |  |  | Arrest (%) ([1]; 0.1 µM): 0%; Fib-like (%) ([1]; 0.1 µM): 14% |
| CC(C)COCC(CN(Cc1ccccc1)c1ccccc1)N1CCCC1 (centres unmarked) [Bepridil] | High | 300 | (+) | 5 | 5 | APD90 prolongation in papillary musole (ratio) ([5]; 10 μM): 1.02 ratio; inhibition at 5 min, 0.3 µM (hERG; CHO-K1 cells expressing hERG): 61.9%; MAPD90 prolongation in Langendorff hearts (ratio) ([6]; 10 μM): 1.12 ratio; FPD (ratio) ([4]; hCM clusters): 1.21 ± 0.12 ratio; STVFPD (ratio) ([4]; hCM clusters): 4.74 ± 2.26 ratio |
| COc1cc(N)c(Cl)cc1C(=O)NC1CCN(CCCOc2ccc(F)cc2)CC1OC (centres unmarked) [Cisapride] | High | 180 | (+) | 0 | 4 | APD90 prolongation in papillary musole (ratio) ([5]; 1 μM): 1.14 ratio; inhibition at 5 min, 1 µM (hERG; CHO-K1 cells expressing hERG): 90.6%; MAPD90 prolongation in Langendorff hearts (ratio) ([6]; 1 μM): 1.37 ratio; FPD (ratio) ([4]; hCM clusters): 1.37 ± 0.07 ratio; STVFPD (ratio) ([4]; hCM clusters): 3.82 ± 0.85 ratio |
| CN(C)CCCC1(c2ccc(F)cc2)OCc2cc(C#N)ccc21 (centres unmarked) [Citalopram] | High | 270 | (+) | 12 | 0 | APD90 prolongation in papillary musole (ratio) ([5]; 10 μM): 0.95 ratio; inhibition at 10 µM (hERG): 83.5%; FPD (ratio) ([4]; hCM clusters): 0.86 ± 0.04 ratio; STVFPD (ratio) ([4]; hCM clusters): 2.75 ± 0.78 ratio |
| NC(N)=Nc1nc(CSCCC(N)=NS(N)(=O)=O)cs1 [Famotidine] | Low | 190 |  | 0 | 0 |  |
| COc1c(N2C[C@@H]3CCCN[C@@H]3C2)c(F)cc2c(=O)c(C(=O)O)cn(C3CC3)c12 [Moxifloxacin] |  | 10000 |  |  |  | Arrest (%) ([1]; 100 µM): 0%; Fib-like (%) ([1]; 100 µM): 0% |
| Fc1ccc([C@@H]2CCNC[C@H]2COc2ccc3c(c2)OCO3)cc1 [Paroxetin] | High | 70 |  |  |  | FPD (ratio) ([4]; hCM clusters): 1.30 ± 0.06 ratio; STVFPD (ratio) ([4]; hCM clusters): 2.27 ± 0.41 ratio; Arrest (%) [4, 7]: 13%; Fib-like (%) [4, 7]: 0% |
| CC(C)(C)c1ccc(C(O)CCCN2CCC(C(O)(c3ccccc3)c3ccccc3)CC2)cc1 (centres unmarked) [Terfenadine] | High | 220 | (+) | 21 | 3 | STVFPD in hCM clusters, long-term observation ([4]; 0.3 μM, even at 72 h): no significant increase; time at which FPD reached the risk level ([4]; 0.3 μM, hCM clusters, long-term observation): 24 h; FPD in hCM clusters, long-term observation ([4]; 0.3 μM, observed 8 h after application): gradual increase |
